Patent EP0286252A2, “Anti-cancer composition & method featuring cyanine dyes” (DANA FARBER CANCER INSTITUTE, priority 1987, dated 1988)

Key:
stomach cancer = conditions: treating stomach cancer in Japan; Antibiotics Chemother., Vol. 24 (1978); cited from earlier work
[1] = tested on: human melanoma cell line, LOX; test: LOX melanoma survival test, nude mice protocol; assay type: in vivo, athymic Swiss nu/nu mice; conditions: for T/C: survival of treated vs untreated control group, 5 million LOX cells IP, IP treatment from day 1, lower dosage schedule for Dye 5
Text: (§1) Figs. 1-8 are a plot of survival rates of a cancer in an animal model, either treated as per the invention or untreated. In these plots, "% survival" means the % of the total group (treated "T" or control "C") still surviving on the day in question. The 50% data point is selected for the T/C calculation, as being the point that is statistically meaningful.
(§2) In the examples that follow, "nude mice protocol" refers to conventional xenografted human carcinoma or melanoma cells implanted into athymic mice. […] This has been reported in, e.g., the Journal of the National Cancer Institute, Vol. 74, No. 4, p. 899-903, especially p. […] (April 1985).
A human melanoma cell line, LOX, was utilized that grows rapidly when innoculated into the peritoneal cavity of athymic mice. Tumors which had been passaged subcutaneously in athymic mice were excised under sterile conditions and converted to a single cell suspension using a metal grid with a 4 mm mesh. Red blood cells were then lysed by incubation with 0.17 molar ammonium chloride at 4°C for 20 minutes. Cells were then scored for viability with trypan blue and 5 million viable cells made up in 0.1 ml of Dulbecco modified Eagles' medium (DME) were injected intraperitoneally into a group of athymic Swiss nu/nu mice (day 0). The mice were then randomly allocated into treatment and control groups. Treatment, by intraperitoneal injection, commenced the following day (day 1). Mice received dye No. 1 or Dye No. 2 at 1 mg/kg daily for five days followed by 1.5 mg/kg on day 8, 10, 12, 14 and 16, and twice a week at 2 mg/kg thereafter. There were 10 mice in each of the treatment groups and control group. The control group received 5% dextrose solution equal in volume to that of the Dye No. 1 treated group.
In the same experiment, the comparative example 1 was administered to 10 mice using the following schedule: 0.2 mg/kg daily for five days followed by 0.5 mg/kg on day 8, 10, 12, 14 and 16, and twice a week at 1 mg/kg thereafter.
T/C is the ratio, expressed as a percentage, of mean survival age of the treated group, to the mean survival age of the untreated control group.

[2] = tested on: CX-1 (human colon carcinoma); test: clonogenic in vitro study, inhibition of cell colony formation; assay type: cell-based; conditions: concentration of dye that inhibits 50% of cell colony formation, regular lighting conditions of laboratories; for IC50: Homo sapiens
Text: As noted above, one of the advantages of the invention is that the cyanines described herein selectively attack the cancer cells as opposed to normal cells. Although knowledge of the mechanism is not essential to the practice of the invention, it is believed this occurs through the preferential inhibition of oxygen consumption in the mitochondria of the cancer cells. Such selectivity is further shown in clonogenic in vitro studies carried out in conventional fashion. That is, cell cultures of CX-1 (human colon carcinoma) and CV-1 (normal monkey epithelial cells) are prepared and treated at various concentrations, in the conventional manner, and the concentration of the dye that inhibits 50% of the cell colony formation is denoted as IC₅₀. This IC₅₀ value is compared for both the CX-1 and CV-1 lines; that is, the value for CV-1 is divided by the value for CX-1. If the value is 10 µg/ml for CV-1, and 1 µg/ml for CX-1, then the dye is 10 times as effective in killing off the colon carcinoma cells, compared to the monkey epithelial cells. This is expressed as a selectivity "S" of 10.
The selectivity values, and the CX-1 values for four of the cyanines of this invention obtained and tested under regular lighting conditions of laboratories, are listed below in Table I, along with a fifth cyanine used for comparative purposes.

MB49 tumor cells = test: mouse bladder carcinoma survival test, dyes given intraperitoneally; assay type: in vivo, normal male BDF1 mice
Method: as §1
MB49 tumor cells, that is, mouse carcinoma cells induced by the carcinogen 7,12-dimethylbenz[a]anthracene, were injected intraperitoneally into normal male BDF1 mice (2 X 10⁶/mouse on day 0). Cyanine Dye No. 1 or No. 2, was administered intraperitioneally in the following manner: 0.2 mg/kg on day 1, 0.4 mg/kg on day 2, 0.8 mg/kg on day 3, 1.2 mg/kg on day 4, 1.5 mg/kg on days 8, 12, 16, 20, 24. (No further injection was used thereafter). […] (No further injection was used thereafter.) The control group of 10 mice was treated with equal volume of 5% dextrose as those treated with dye no. 1. The survival rate was calculated as in the previous examples.

[3] = tested on: CX-1 (human colon carcinoma) and CV-1 (normal monkey epithelial cells); test: clonogenic in vitro selectivity, IC50 for CV-1 divided by IC50 for CX-1; assay type: cell-based; conditions: selectivity: IC50 value for CV-1 divided by value for CX-1
Method: That is, cell cultures of CX-1 (human colon carcinoma) and CV-1 (normal monkey epithelial cells) are prepared and treated at various concentrations, in the conventional manner, and the concentration of the dye that inhibits 50% of the cell colony formation is denoted as IC₅₀. This IC₅₀ value is compared for both the CX-1 and CV-1 lines; that is, the value for CV-1 is divided by the value for CX-1. […] This is expressed as a selectivity "S" of 10.
Their generic structure is as follows: [drawing 7]

[4] = tested on: OVCAR -3, a human ovarian carcinoma cell line; test: ovarian carcinoma survival test, nude mice protocol; assay type: in vivo, athymic Swiss nu/nu mice; conditions: survival of treated vs control; ten million OVCAR-3 cells IP; IP treatment; lower dosage schedule for Dye 5
Text: as §1, §2
Dye Nos. 1 and 2 were repeated, except the cancer that was treated was OVCAR -3, a human ovarian carcinoma cell line of which ten million cells were injected IP into athymic Swiss nu/nu mice. For Ex. 5, 10 mice received dye 1 by IP injection commenced the day after the cancer injection, and repeated daily at 1.5 mg/kg for four days followed by 2 mg/kg on day 7, 10, 13, 16, 19 and 21, and twice a week at 2 mg/kg thereafter. Ten mice having such injected cancer were selected as a control group and received an equal volume of 5% dextrose as that of the treated group.
For Ex. 6, 10 mice received dye no. […]

IC50 [2] [ng/mL] | SMILES | T/C [1] [%] | S [3] | also measured
– | COc1cccc2c1C(=O)c1c(O)c3c(c(O)c1C2=O)C[C@@](O)(C(=O)CO)C[C@@H]3O[C@H]1C[C@H](N)[C@H](O)[C@H](C)O1 [Adriamycin] | – | – | effective response rate (stomach cancer): 14.5%
– | CN1C(=CC=Cc2sc3ccccc3[n+]2C)Sc2ccccc21 [Dye No. 1, 3-methyl-2-[3-(3-methyl-4-benzo-thiazolin-2-ylidene)-1-propen-1-yl]-benzo-thiazolium chloride] | 205 | – | –
– | CCN1C(=CC=Cc2sc3ccccc3[n+]2CC)Sc2ccccc21 [Dye No. 2, 3-ethyl-2-[3-(3-ethyl-4-benzothia-zolin-2-ylidene)-1-propen-1-yl]-benzothiazolium iodide] | 176 | – | –
– | CCCN1C(=CC=Cc2sc3ccccc3[n+]2CCC)Sc2ccccc21 [Dye No. 5, 3-propyl-2-[3-(3-propyl-4-benzothia-zolin-2-ylidene)-1-propen-1-yl]benzothiazolium iodide] | – | – | toxicity at the dosage of Dye No. 1 ([1]; LOX-bearing athymic mice, IP, dosage schedule of Dye No. 1 (1 mg/kg daily for five days, then 1.5 and 2 mg/kg)): killed the mice before the 50% survival point of the control could be reached; T/C ([1]; listed as 3): 168%; CX-1 Value ([2]; listed as 3): .004 µg/mL; outcome of treatment (verdict in words) (MB49 tumor cells; MB49 mouse bladder carcinoma, IP): failure
5 | CN1C(=CC=Cc2sc3ccccc3[n+]2C)Sc2ccccc21 [compound 1] | – | – | –
5 | CCN1C(=CC=Cc2sc3ccccc3[n+]2CC)Sc2ccccc21 [compound 2] | – | – | –
50 | CCN1C(=CC=c2sc(=Cc3sc4c([n+]3CC)CCCC4)n(CC)c2=O)Oc2ccccc21 [compound 4] | 166 | 100 | –
– | CCCN1C(=CC=Cc2sc3ccccc3[n+]2CCC)Sc2ccccc21 [compound 5] | 128 | 22 | T/C [4]: 138%; CX-1 Value [2]: .009 µg/mL; T/C (MB49 tumor cells; survival of treated vs control, 2 X 10^6 MB49 cells/mouse IP, IP treatment, lower dosage schedule for dye No. 5): 113%
– | CCN1C(=CC(=Cc2sc3ccccc3[n+]2C)SC)Sc2ccccc21 [compound 6] | – | 37.5 | –
– | CCC(=Cc1oc2ccccc2[n+]1CC)C=C1Sc2ccccc2N1CC [compound 7] | – | 33.3 | –
